The text below walks through data of patent publication US20170007568A1, “USE OF COMPOSITION CONTAINING IRON (II) AMINO ACID CHELATE IN PREPARATION OF DRUG FOR AMELIORATING DIABETES” (PROFEAT BIOTECHNOLOGY CO., LTD., priority 2014, published 2017).

Format in all cases: in vivo, C57BL/6JNR male mice
Test [1] relates to type 2 diabetes mice (nicotinamide/streptozotocin + high fat diet). Put plainly: Glycated hemoglobin (HbA1c) of drug-induced diabetic mice. The following applies: dose not printed, one month. As for the experimental part:
(§1) C57BL/6JNR male mice at 6 weeks of age (purchased from National Laboratory Animal Center) were fed with normal diet for 1 week. Each of the mice was injected intraperitoneally with 240 mg/kg nicotinamide, and after 15 minutes, each of the mice was injected intraperitoneally with 100 mg/kg streptozotocin. Two days later, each of the mice was injected with nicotinamide and streptozotocin with the same dosages and method as shown above, followed by feeding with the high fat diet (60% fat). Two months later, the mice having fasting blood glucose higher than 140 mg/dl and impaired glucose tolerance (which meant that the blood glucose values were not measured within normal range after injecting glucose for 2 hours) were picked to be type 2 diabetes mice.
(§2) The mice were divided into 4 groups which included a control group (supplied with phosphate solution), a metformin (Met) group, a composition A1 with low dose (4 mg/kg/day) group, and a composition A1 with high dose (12 mg/kg/day) group. The weights of the mice were measured every 3 days, and the blood glucose values, oral glucose tolerance assay (OGTT), glycated hemoglobin (HbA1c) and insulin variances of the mice were measured every 4 weeks.
(§3) The blood glucose values were measured with a Chemistry Analyzer (Hitachi, Ltd., Japan). […] The insulin variance was measured with enzyme-linked immunosorbent assay (ELISA) (Mercodia, Ltd. Sweden).

Test [2] has the same test system. Put plainly: Insulin (ELISA) of drug-induced diabetic mice. The conditions noted are these: dose not printed, one month. As for the experimental part: as §1, §2, §3
Background: An ELISA detects its analyte on a solid surface through an enzyme-linked reagent.

For test [3] the test system is unchanged. The test is described as follows: Fasting blood glucose of drug-induced diabetic mice. The conditions noted are these: dose not printed, one month. As for the experimental part: as §1, §2, §3
Test [4] shares this test system. Put plainly: HOMA-IR index of drug-induced diabetic mice. The following applies: dose not printed, one month. As for the experimental part: as §1, §2
The index of homeostasis model assessment for insulin resistance (HOMA-IR) was calculated from the following formula:
HOMA-IR index=insulin (μU/ml)×glucose (mmol/L)/22.5.

The test system is the same in test [5]. The test is described as follows: Oral glucose tolerance assay (OGTT) in drug-induced diabetic mice. The following applies: metformin group, dose not given. As for the experimental part: as §1, §2, §3

Turning to `NCC(=O)O` [Glycine], in test [1], the “Glycated hemoglobin (HbA1c)” value is 3.71 ± 0.03. Also, the insulin in test [2] turned out to be 12.47 ± 2.36. For the same molecule, the Fasting blood glucose in test [3] is 182.88 ± 11.20. Also, in test [4], the HOMA-IR was 5.23 ± 1.73.

For the molecule `CN(C)C(=N)N=C(N)N` [Metformin], the “glucose tolerance (OGTT)” value in test [5] was “improved”. Moreover, the “Glycated hemoglobin (HbA1c)” value in test [1] stood at 3.57 ± 0.04. Also, the insulin in test [2] came to 11.11 ± 6.47. Moreover, the Fasting blood glucose in test [3] is recorded as 169.00 ± 10.77. Moreover, the results for the HOMA-IR in test [4] and in test [4] (listed as metformin) were 4.53 ± 1.42 and 4.53, respectively.
